Values joined by “and” are separate entries in the source; they are usually repeats but may differ in a detail not shown here. Identical values can stand only once. Bounds are passed on as bounds.

The assay deals with 967376-340-R-J2-PDC multicell spheroid viability. The experiment in a line: Anticancer human tumor 967376-340-R-J2-PDC patient-derived colon adenocarcinoma cell line growth inhibition [PI3K]. The conditions noted are these: for viability, T/C: stronger effect = lower value. The source says: Combinatorial screen of targeted agents with the PI3K inhibitors inavolisib, alpelisib, duvelisib, and copanlisib in multi-cell type tumor spheroids
A high-throughput screen of multi-cell type tumor spheroids was designed to identify active combinations of targeted small molecules and PI3K pathway inhibitors. Complex spheroids include a stromal component modeled by human endothelial cells (HUVEC) and fibroblasts modeled by human mesenchymal stem cells (MSCs). The concentration ranges selected for each drug and investigational agent were based upon clinically achievable concentrations if the clinical Cmax of the agent was known.
Compounds. The drugs and investigational agents: inavolisib (NSC800729), alpelisib (NSC765974), duvelisib (NSC772469), copanlisib (NSC816437), ipatasertib (NSC767898), afuresertib (NSC778305), talazoparib (NSC767125), sapanisertib (NSC764658), selumetinib (NSC741078), tovorafenib (DAY101, NSC766906), vemurafenib (NSC761431), ravoxertinib (NSC781343), sotorasib (NSC818433), MRTX1133 (NSC 836407), abemaciclib (NSC 768073), palbociclib (NSC758247), venetoclax (NSC 766270), SY5609 (NSC837396), enzalutamide (NSC755605), and darolutamide (NSC825331), were obtained from the National Cancer Institute (NCI) Developmental Therapeutics Program Chemical Repository. The FDA-approved anticancer drug set is available from the NCI Developmental Therapeutics Program. […] The stock solutions were prepared in dimethyl sulfoxide (DMSO, Sigma-Aldrich, St. Louis, MO, cat. D2650) at 800-fold the tested concentration and stored at -70 degrees C prior to their use. All drugs and investigational agents were tested over a range starting from a high concentration at or near the clinical Cmax and decreasing in half-log increments. If the clinical Cmax for an agent had not been determined, the highest concentration tested was 10 microM.
Cell Culture. All cells were maintained in an incubator at 37 degrees C and 5% CO2 with 95% humidity. The PDC lines were cultured according to standard operating procedures established by the NCI PDMR (https://pdmr.cancer.gov/sops/default.htm). All PDCs were thawed and cultured in Matrigel-coated flasks prepared with a working solution of 1X Ham's F-12 nutrient mix, without supplementation (Invitrogen, Waltham, MA, cat. 11765054), 100 U/mL penicillin-streptomycin (Invitrogen, cat. 15140122), and 2.5% Matrigel (Corning Inc., Corning, NY, cat. 354248) for the first three passages. The 354836-022-R-J1-PDC, 475296-252-R-J1-PDC, and 997726-040-R-J2-PDC lines were cultured in 6A media, which includes advanced DMEM/F-12 (Thermo Fisher Scientific, cat. 12634028), 10 mM HEPES (Thermo Fisher Scientific, cat. 15630080), 1X GlutaMAX supplement (Thermo Fisher Scientific, cat. 35050061), 0.1 mg/mL primocin (InvivoGen, San Diego, CA, cat. ant-pm-2), 10% defined fetal bovine serum, heat inactivated (HyClone Laboratories Inc., Logan, UT, cat. SH30070.03HI), 50% L-WRN conditioned media (ATCC, cat. CRL-3276), 1.25 mM N-Acetyl-L-cysteine (Sigma-Aldrich, cat. A9165), 10 mM nicotinamide (Sigma-Aldrich, cat. N0636), 1X B-27 supplement (Thermo Fisher Scientific, cat. 17504044), 1X N-2 supplement (Thermo Fisher Scientific, cat. 17502048), and 10 microM Y-27632 dihydrochloride (Tocris Bioscience, Bristol, United Kingdom, cat. 1254). The 624824-186-R-J2-PDC line was cultured in 6C/Colon 1B media, which includes all 6A media components plus 50 ng/mL human EGF recombinant protein (Thermo Fisher Scientific, cat. PHG0311). […]

The mark [1] stands for this setting: compound alone, run of 06/13/2023.
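Further: spheroids exposed to agents for 7 days before read-out.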
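Wherever viability, T/C is given: luminescence used as surrogate of cell viability.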

What is called viability, T/C is the ratio of treated to control. What is called IC50 is the concentration needed to halve the response being measured. On to `C#Cc1c(F)ccc2cc(O)cc(-c3ncc4c(N5CC6CCC(C5)N6)nc(OCC56CCCN5CC(F)C6)nc4c3F)c12` (stereo not given), for which the viability, T/C (compound 0.0316 µM) is 106% [middle of 4 runs]; the viability, T/C (compound 0.1 µM) is 109% and 101% (2×) and 92.1%; the viability, T/C (compound 3.16 µM) was 91.7% [middle of 4 runs]. Besides, for the setting “curve of compound”, the IC50 is over 10 µM.

As to `C=CC(=O)N1CCN(c2nc(=O)n(-c3c(C)ccnc3C(C)C)c3nc(-c4c(O)cccc4F)c(F)cc23)C(C)C1` (stereo not given), the viability, T/C reads like this: (compound 0.0316 µM) 106% and 98.1% and 85.1%; (compound 0.1 µM) 87.2% and 75.8% and 115%; (compound 0.316 µM) 106% and 107% and 86.6%; (compound 1 µM) 97.1% and 124% and 96.3%; (compound 3.16 µM) 119% and 123% and 101%; (compound 10 µM) 112% and 107% and 119%. Moreover, the half-inhibitory concentration (IC50) (curve of compound) was over 10 µM.

Consider `CC(=O)c1c(C)c2cnc(Nc3ccc(N4CCNCC4)cn3)nc2n(C2CCCC2)c1=O`, for which the viability, T/C by setting is: (compound 0.000316 µM) 101% [middle of 4 runs]; (compound 0.001 µM) 95.8% [middle of 4 runs]; (compound 0.00316 µM) 103% [middle of 4 runs]; (compound 0.01 µM) 98.9% [middle of 4 runs]; (compound 0.0316 µM) 118% (2×) and 120% and 81.9%; (compound 0.1 µM) 79% [middle of 4 runs]. Moreover, under “curve of compound”, the IC50 is over 0.1 µM.

For `CC(C)NCC(C(=O)N1CCN(c2ncnc3c2C(C)CC3O)CC1)c1ccc(Cl)cc1` (stereo not given), the viability, T/C by setting is: (compound 0.0316 µM) 107% [middle of 4 runs]; (compound 0.1 µM) 91.1% [middle of 4 runs]; (compound 0.316 µM) 90.2% [middle of 4 runs]; (compound 1 µM) 88% [middle of 4 runs]; (compound 3.16 µM) 103% [middle of 4 runs]; (compound 10 µM) 83.2% [middle of 4 runs]. Moreover, the IC50 (curve of compound) was over 10 µM.

On to `CC(C)n1nc(-c2ccc3oc(N)nc3c2)c2c(N)ncnc21`, for which the viability, T/C (compound 0.000316 µM) was 103% [middle of 4 runs]; the viability, T/C (compound 0.00316 µM) was 101% [middle of 4 runs]; the viability, T/C (compound 0.0316 µM) is 80.7% [middle of 4 runs]; the viability, T/C (compound 0.1 µM) is 59.2% [middle of 4 runs]. In addition, where the note is “curve of compound”, the half-maximal inhibitory concentration (IC50) was > 0.1 µM and 0.0967 µM.

Turning to `CC(Cn1ccc(-c2ccc(C#N)c(Cl)c2)n1)NC(=O)c1cc(C(C)O)[nH]n1` (stereo not given), the viability, T/C (compound 0.0316 µM) was 105% [middle of 4 runs]; the viability, T/C (compound 0.1 µM) was 99.6% [middle of 4 runs]; the viability, T/C (compound 0.316 µM) was 101% [middle of 4 runs]; the viability, T/C (compound 1 µM) is 101% [middle of 4 runs]; the viability, T/C (compound 3.16 µM) is 103% [middle of 4 runs]. Moreover, the IC50 (curve of compound) is over 10 µM.

In the case of `CC(Nc1ccc2c(c1)OCCn1cc(N3C(=O)OCC3C(F)F)nc1-2)C(N)=O` (stereo not given), the viability, T/C by setting is: (compound 0.0316 µM) 86.9% [middle of 7 runs]; (compound 0.1 µM) 81.4% [middle of 7 runs]; (compound 0.316 µM) 67% [middle of 7 runs]; (compound 1 µM) 52.7% [middle of 7 runs].

As to `CC(Nc1ncnc2nc[nH]c12)c1cc2cccc(Cl)c2c(=O)n1-c1ccccc1` (stereo not given), the viability, T/C runs as follows: (compound 0.0316 µM) 94.5% [middle of 8 runs]; (compound 0.316 µM) 89% [middle of 8 runs]; (compound 1 µM) 94.5% [middle of 8 runs]. Besides, under setting [1], the half-maximal inhibitory concentration (IC50) is over 10 µM.

As to `CC1(C)CCC(CN2CCN(c3ccc(C(=O)NS(=O)(=O)c4ccc(NCC5CCOCC5)c([N+](=O)[O-])c4)c(Oc4cnc5[nH]ccc5c4)c3)CC2)=C(c2ccc(Cl)cc2)C1`, the viability, T/C is, setting by setting: (compound 0.0316 µM) 99.2% [middle of 4 runs]; (compound 0.1 µM) 94.1% [middle of 4 runs]; (compound 0.316 µM) 88.6% [middle of 4 runs]; (compound 1 µM) 88.1% [middle of 4 runs]; (compound 3.16 µM) 89.6% [middle of 4 runs]. In addition, the IC50 (curve of compound) was over 10 µM.

As to `CC1(C)CCC(Nc2ncc(C(F)(F)F)c(-c3c[nH]c4c(P(C)(C)=O)c(C#N)ccc34)n2)CN1` (stereo not given), the viability, T/C (compound 0.0316 µM) is 88.9% [middle of 4 runs]; the viability, T/C (compound 0.316 µM) was 73.3% [middle of 4 runs]; the viability, T/C (compound 1 µM) is 71.2% [middle of 4 runs]; the viability, T/C (compound 3.16 µM) is 69.4% [middle of 4 runs]; the viability, T/C (compound 10 µM) was 48.1% [middle of 4 runs]. For the same molecule, the IC50 (curve of compound) is 9.93 µM and > 10 µM and 2.51 µM.

Regarding `CCCS(=O)(=O)Nc1ccc(F)c(C(=O)c2c[nH]c3ncc(-c4ccc(Cl)cc4)cc23)c1F`, the viability, T/C (compound 0.0316 µM) is 102% [middle of 4 runs]; the viability, T/C (compound 0.1 µM) is 87.8% [middle of 4 runs]; the viability, T/C (compound 0.316 µM) is 94.6% [middle of 4 runs]; the viability, T/C (compound 3.16 µM) was 104% [middle of 4 runs]; the viability, T/C (compound 10 µM) is 56.4% [middle of 4 runs]. Moreover, where the note is “curve of compound”, the IC50 is > 10 µM and 9.14 µM.

As to `CCN1CCN(Cc2ccc(Nc3ncc(F)c(-c4cc(F)c5nc(C)n(C(C)C)c5c4)n3)nc2)CC1`, the viability, T/C is, setting by setting: (compound 0.00316 µM) 110% [middle of 4 runs]; (compound 0.01 µM) 93.5% [middle of 4 runs]; (compound 0.0316 µM) 94.2% [middle of 4 runs]; (compound 0.1 µM) 82% [middle of 4 runs]; (compound 0.316 µM) 87% [middle of 4 runs]; (compound 1 µM) 74% [middle of 4 runs]. For the same molecule, under “curve of compound”, the IC50 is over 1 µM.

Consider `COc1c(OCCCN2CCOCC2)ccc2c3n(c(=NC(=O)c4cnc(N)nc4)nc12)CCN3`, for which the viability, T/C reads like this: (compound 0.01 µM) 85.7% [middle of 8 runs]; (compound 0.0316 µM) 79.9% [middle of 8 runs]; (compound 0.1 µM) 60.7% [middle of 8 runs]; (compound 0.316 µM) 47.8% [middle of 8 runs]; (compound 1 µM) 38.5% [middle of 8 runs]. Besides, the concentration for half-maximal inhibition (IC50) under setting [1] is 212 nM [middle of 8 runs].

Take `Cc1nc(NC(=O)N2CCCC2C(N)=O)sc1-c1ccnc(C(C)(C)C(F)(F)F)c1` (stereo not given): the viability, T/C reads like this: (compound 0.1 µM) 85.3% [middle of 8 runs]; (compound 0.316 µM) 80.7% [middle of 8 runs]; (compound 1 µM) 73.6% [middle of 8 runs]; (compound 3.16 µM) 64.3% [middle of 8 runs]; (compound 10 µM) 45.7% [middle of 8 runs].

As for `Cn1cnc2c(F)c(Nc3ccc(Br)cc3Cl)c(C(=O)NOCCO)cc21`, the viability, T/C was 89.9% [middle of 4 runs] (compound 0.00949 µM), 97.7% [middle of 4 runs] (compound 0.03 µM) and 87.6% [middle of 4 runs] (compound 0.0949 µM).

For the molecule `Cn1ncc(Cl)c1-c1cc(C(=O)NC(CN)Cc2cccc(F)c2)sc1Cl` (stereo not given), the viability, T/C is, setting by setting: (compound 0.0316 µM) 107% [middle of 4 runs]; (compound 0.316 µM) 91.2% [middle of 4 runs]; (compound 3.16 µM) 81.3% [middle of 4 runs]; (compound 10 µM) 76.4% [middle of 4 runs]. The half-maximal inhibitory concentration (IC50) (curve of compound) was over 10 µM.

For the molecule `Cn1nccc1Nc1nccc(-c2ccn(C(CO)c3ccc(Cl)c(F)c3)c(=O)c2)n1` (stereo not given), the viability, T/C by setting is: (compound 0.0316 µM) 100% [middle of 4 runs]; (compound 0.1 µM) 94.5% [middle of 4 runs]; (compound 0.316 µM) 101% (2×) and 95.3% and 76.4%; (compound 10 µM) 99.5% [middle of 4 runs]. For the same molecule, the IC50 (curve of compound) was over 10 µM.

`Cn1ncnc1[C@H]1c2n[nH]c(=O)c3cc(F)cc(c23)N[C@@H]1c1ccc(F)cc1`: the viability, T/C (compound 0.000316 µM) was 78.6% and 114% and 95.8%; the viability, T/C (compound 0.001 µM) is 82.5% and 93.1% and 84.2%; the viability, T/C (compound 0.00316 µM) is 90.3% and 94.6% and 70.5%; the viability, T/C (compound 0.01 µM) is 103% and 104% and 90.4%; the viability, T/C (compound 0.0316 µM) is 93.2% and 88.8% and 97.9%; the viability, T/C (compound 0.1 µM) is 92.5% and 99.6% and 94.7%. For the same molecule, where the note is “curve of compound”, the IC50 is over 0.1 µM.
